Laboratory results: publication PMC3463753 (Molecular pharmaceutics, 2012)

System: MDCK-WT, MDCK-CYP3A4 and MDCK-MDR1-CYP3A4 cells
Test: Mannitol
Assay type: in vitro ADME, dog
Conditions: paracellular marker; data not shown

Mannitol transport in MDCK-WT, MDCK-CYP3A4 and MDCK-MDR1-CYP3A4 cells: No significant difference
Compound: OC[C@@H](O)[C@@H](O)[C@H](O)[C@H](O)CO [mannitol]
